Test results from EP0628545A1, “13,14-Dihydro-PGF2BETA and its isopropyl ester” (ONO PHARMACEUTICAL CO., LTD., priority 1993, dated 1994).

Assays:
[1] = test system: intraocular pressure; test: Reducing effect of intraocular pressure after instillation into the rabbit eye (Experiment 1); assay type: in vivo, Japanese White rabbits; settings: for Δ IOP, Reducing Effects of Intraocular Pressure: 50 µl instilled into left eye, vehicle-corrected, average of three samples; for Change in I.O.P.: area over 0 mmHg minus area under 0 mmHg of the IOP-time graph, 0-6 hr, minus = reduction
Experimental: For example, in a standard laboratory test the following data shown in Table 1 and 2 and in the accompanying Figure 1 were obtained. Average of the value of three samples are shown as each data. In the Figure reduction in intraocular pressure is plotted against time after administration for the compound of the invention and three comparison compounds.
Male Japanese White rabbits weighing about 3.0 kg were lightly held and the intraocular pressure was measured by Applanation Pneumatonograph after corneal anesthesia with instillation of 0.4% oxybuprocaine hydrochloride solution.
A 0.1% solution of a test compound was dissolved in vehicle which contains 2.5% conc. glycerol and 2.0% Polysorbate 80 in sterile purified water. The test solution at volume of 50 µl was instilled into left eye of each rabbit and the right eye remained untreated. As a control, the vehicle was instilled into left eye in a control group. Δ IOP (mmHg), which is an index of intraocular pressure-reducing effect, were calculated using below formula. IOP = (IOPt - IOP₀) - (IOPvt - IOPv0 ) [formula] IOPt : IOP at t hr after instillation of a test solution IOPvt : IOP at t hr after instillation of vehicle IOP₀ : IOP just before instillation of a test solution IOPv0 : IOP just before instillation of vehicle
Taking into consideration the continuous time of occurrence of the reduction effect and the intensity of the effect, the superiority of the compound of the present invention to the compared compound is clear. On the graph 1, the squares i.e. reducing effect of intraocular pressure, were calculated: That is, squares under 0 mmHg put minus and squares over 0 mmHg put plus, and the total squares are calculated and the values are shown in the Table 2.
On the graph of the intraocular pressure in course of time, area of the square (mmHg x hr) in elevation i.e. square over 0 mmHg and area of the square (mmHg x hr) in the reduction i.e. square under 0 mmHg were calculated and from the value of the former was subtracted the one of the latter. The minus-resulted value means reduction of intraocular pressure and the plus-resulted value means elevation of intraocular pressure.

[2] = Detection of compound and metabolite in eye tissue homogenates by liquid chromatography-mass spectrum after eye drop administration (Experiment 2); assay type: in vivo, Japanese White rabbits; settings: 1 Hr after the last administration; for detection in the homogenates of aqueous humor, cornea or iris/ciliary body: eye drop solution of Example 1 three times every 5 mins in saccus conjunctivae
Experimental: Japanese White rabbits weighing 3.0 kg were used. Eye drop solution of Example 1 was administered three times every 5 mins in saccus conjunctivae. 1 Hr after the last administration, aqueous humor, cornea and iris/ciliary body were collected and homogenized respectively. The homogenates were measured by liquid chromatography-Mass spectrum.

[3] = 0 hr after administration (baseline), 0.1% solution
[4] = 1 hr after administration, 0.1% solution
[5] = 2 hr after administration, 0.1% solution
[6] = 4 hr after administration, 0.1% solution
[7] = 6 hr after administration, 0.1% solution

SMILES | continued elevation of the intraocular pressure ([1]; 0.1% solution) | initial elevation of the intraocular pressure ([1]; 0.1% solution) | bulbar and palpebral conjunctival hyperemia ([1]; after instillation of 0.1% solution) | detection in the homogenates of aqueous humor, cornea or iris/ciliary body [2] | Δ IOP, Reducing Effects of Intraocular Pressure [1, 3] | time after administration at which the reducing effect appeared ([1]; 0.1% solution) | Δ IOP, Reducing Effects of Intraocular Pressure [1, 4] | Δ IOP, Reducing Effects of Intraocular Pressure [1, 5] | Δ IOP, Reducing Effects of Intraocular Pressure [1, 6] | Δ IOP, Reducing Effects of Intraocular Pressure [1, 7] | Change in I.O.P. ([1]; 0.1% solution) | maximum reduction of IOP ([1]; 0.1% solution) | activity (reduction of intraocular pressure) reached ([1]; at 2 hrs after administration, same level maintained till 6 hrs) | hydrolysis on cornea ([2]; eye drop solution of Example 1)
CCCCC[C@H](O)/C=C/[C@@H]1[C@@H](C/C=C\CCCC(=O)OC(C)C)[C@@H](O)C[C@@H]1O [Compared compound 1, 11-epi-PGF2α isopropyl ester] | continuous elevation till 6 hrs | showed initial elevation | – | – | 0 mm Hg | > 6 h | 3.5 mm Hg | 1.5 mm Hg | 1.5 mm Hg | 0.2 mm Hg | 8.95 mmHg x hr | – | – | –
CCCCC[C@H](O)/C=C/[C@@H]1[C@@H](C/C=C\CCCC(=O)OC(C)C)[C@@H](O)C[C@H]1O [Compared compound 2, PGF2α isopropyl ester] | – | extremely strong initial elevation | – | – | 0 mm Hg | ~4 h | 13.7 mm Hg | 3.7 mm Hg | -1 mm Hg | -5.8 mm Hg | 11.36 mmHg x hr | – | – | –
CCCCC[C@H](O)CC[C@@H]1[C@@H](C/C=C\CCCC(=O)OC)[C@@H](O)C[C@H]1O [Compared compound 3, 13,14-dihydro-PGF2α methyl ester] | – | showed initial elevation | – | – | 0 mm Hg | ~4 h | 3.3 mm Hg | -1.3 mm Hg | -0.7 mm Hg | -4.3 mm Hg | -4.35 mmHg x hr | – | – | –

The next lines start with results.

continued elevation of the intraocular pressure ([1]; 0.1% solution) | initial elevation of the intraocular pressure ([1]; 0.1% solution) | bulbar and palpebral conjunctival hyperemia ([1]; after instillation of 0.1% solution) | detection in the homogenates of aqueous humor, cornea or iris/ciliary body [2] | SMILES | Δ IOP, Reducing Effects of Intraocular Pressure [1, 3] | time after administration at which the reducing effect appeared ([1]; 0.1% solution) | Δ IOP, Reducing Effects of Intraocular Pressure [1, 4] | Δ IOP, Reducing Effects of Intraocular Pressure [1, 5] | Δ IOP, Reducing Effects of Intraocular Pressure [1, 6] | Δ IOP, Reducing Effects of Intraocular Pressure [1, 7] | Change in I.O.P. ([1]; 0.1% solution) | maximum reduction of IOP ([1]; 0.1% solution) | activity (reduction of intraocular pressure) reached ([1]; at 2 hrs after administration, same level maintained till 6 hrs) | hydrolysis on cornea ([2]; eye drop solution of Example 1)
– | did not show initial elevation | not observed | not detected | CCCCC[C@H](O)CC[C@@H]1[C@@H](C/C=C\CCCC(=O)OC(C)C)[C@H](O)C[C@H]1O [Example 1, 13,14-dihydro-PGF2β isopropyl ester] | 0 mm Hg | 1 h | -1.8 mm Hg | -5.5 mm Hg | -5.5 mm Hg | -5.3 mm Hg | -26.35 mmHg x hr | 5.5 mmHg | 5.5 mmHg | hydrolysed into the compound of Example 2
– | – | – | detected | CCCCC[C@H](O)CC[C@@H]1[C@@H](C/C=C\CCCC(=O)O)[C@H](O)C[C@H]1O [Example 2, 13,14-dihydro-prostaglandin F2β] | – | – | – | – | – | – | – | – | – | –
